What was measured:
Test in all cases: relative viability (nuclei count vs DMSO), 5 days (fraction); higher = more cells survive
Entinostat + Dasatinib = compound: Nc1ccccc1NC(=O)c1ccc(CNC(=O)OCc2cccnc2)cc1 [Entinostat] + Cc1nc(Nc2ncc(C(=O)Nc3c(C)cccc3Cl)s2)cc(N2CCN(CCO)CC2)n1 [Dasatinib] (partner 0.075 µM)
How it was run: (§1)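 Lung cancer cell lines in 1536-well plates got either a single drug or a fixed anchor-drug dose together with five library-drug doses (not always all listed) in √10 steps, by pin tool, on the day after seeding. Nuclei were counted after 5 days, and relative viability is the treated-to-vehicle ratio of nuclei counts. Values are medians of duplicate plates.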

[1] = compound: C1COCCN1C2=NC(=NC3=C2OC4=C3C=CC=N4)C5=CC(=CC=C5)NC(=O)C6=CN=C(C=C6)N + CS(=O)(=O)CCNCc1ccc(-c2ccc3ncnc(Nc4ccc(OCc5cccc(F)c5)c(Cl)c4)c3c2)o1 [Lapatinib] (partner 2 µM)
How it was run: as §1

[2] = compound: C1COCCN1C2=NC(=NC3=C2OC4=C3C=CC=N4)C5=CC(=CC=C5)NC(=O)C6=CN=C(C=C6)N + CC1(C)CCC(c2ccc(Cl)cc2)=C(CN2CCN(c3ccc(C(=O)NS(=O)(=O)c4ccc(N[C@H](CCN5CCOCC5)CSc5ccccc5)c(S(=O)(=O)C(F)(F)F)c4)cc3)CC2)C1 [Navitoclax] (partner 0.5 µM)
How it was run: as §1

SGI-1776 + Vorinostat = compound: CN1CCC(CNc2ccc3ncc(-c4cccc(OC(F)(F)F)c4)n3n2)CC1 [SGI-1776] + O=C(CCCCCCC(=O)Nc1ccccc1)NO [Vorinostat] (partner 1 µM)
How it was run: as §1

Cell Line	relative viability (Entinostat + Dasatinib; first compound 0.02 µM)	relative viability (Entinostat + Dasatinib; first compound 0.06325 µM)	relative viability (Entinostat + Dasatinib; first compound 0.2 µM)	relative viability (Entinostat + Dasatinib; first compound 0.6325 µM)	relative viability (Entinostat + Dasatinib; first compound 2 µM)	relative viability ([1]; first compound 0.02 µM)	relative viability ([1]; first compound 0.06325 µM)	relative viability ([1]; first compound 0.2 µM)	relative viability ([1]; first compound 0.6325 µM)	relative viability ([1]; first compound 2 µM)	relative viability ([2]; first compound 0.02 µM)	relative viability ([2]; first compound 0.06325 µM)	relative viability ([2]; first compound 0.2 µM)	relative viability ([2]; first compound 0.6325 µM)	relative viability ([2]; first compound 2 µM)	relative viability (SGI-1776 + Vorinostat; first compound 0.08 µM)	relative viability (SGI-1776 + Vorinostat; first compound 0.8 µM)	relative viability (SGI-1776 + Vorinostat; first compound 2.53 µM)	relative viability (SGI-1776 + Vorinostat; first compound 8 µM)
LXF-289	0.209	0.261	0.177	0.178	0.185	0.939	0.97	0.99	0.9	0.696	0.989	1.02	0.973	0.924	0.711	0.693	0.827	0.79	0.682
NCI-H23	0.781	0.971	0.961	0.741	0.378	1.43	1.15	1.18	0.988	0.719	0.788	0.968	0.733	0.72	0.533	0.639	0.758	0.602	0.533
NCI-H322M	0.271	0.274	0.275	0.298	0.313	0.553	0.574	0.506	0.604	0.45	1.14	1.19	1.21	0.924	1.12	0.882	0.926	0.846	0.707
NCI-H460	0.52	0.548	0.235	0.0904	0.0466	0.907	1.12	1.11	0.578	0.0915	1.38	1.47	1.19	0.957	0.0442	0.887	0.688	0.717	0.715
NCI-H520	0.248	0.335	0.238	0.325	0.286	0.874	1.03	0.897	0.852	0.441	1.12	1.17	1.06	1.07	0.713	0.711	0.779	0.797	0.561
NCI-H596	0.627	0.593	0.576	0.448	0.378	0.997	1.04	1	0.997	0.765	1.04	0.983	1.03	0.912	0.444	0.583	0.75	0.595	0.485
NCI-H647	0.197	0.133	0.144	0.0844	0.064	1.11	1.22	0.965	0.868	0.275	1.18	1.11	1.22	1.16	0.704	0.539	0.61	0.604	0.322
NCI-H727	0.475	0.419	0.412	0.219	0.273	0.829	0.753	0.742	0.722	0.686	0.351	0.501	0.343	0.357	0.337	1.26	1.11	1.39	0.983

Reference: the supplement of paper PMC10307832
